The nature of data set [1]: Maturation in 12 different solvents with thermal cycling (XRPD). The note with it: thermal cycling room temperature/50° C., 3 days. Type of data set: physicochemical. The procedure:
The resulting slurries were subjected to maturation with thermal cycling between room temperature and 50° C. (4 hours at each condition) for 3 days. Solids were then analysed by XRPD.

A short description of data set [2]: Psilocin-d0/psilocin-d10 and psilocybin PK comparative study in rats (oral gavage, intravenous bolus; plasma and brain). The note with it: for oral bioavailability: co-dosing of PI-d0 and PI-d10.
Data set [3] in a line: Stability studies with antioxidants. Particulars: EDTA, ascorbic acid, L-cysteine, sodium metabisulfite, propyl gallate; 40° C.
A short description of data set [4]: Long term stability studies with citric acid and sodium citrate buffer. The format is physicochemical. Here is the method:
The long-term stability (up to 25 days) of psilocin in a citric acid solution (0.1 M, pH 1.60) and a sodium citrate buffer (0.1 M, pH 6.01) at 4° C. and 23° C. was assessed.
(§1) Preparation of 0.1 M sodium citrate buffer (pH 6.01): 2.427 g of sodium citrate dihydrate and 0.336 g of citric acid were dissolved in 80 ml of DI water. The pH was adjusted to 6.0 using a 1 M NaOH solution. The final volume was adjusted to 100 ml.
Test solutions: Psilocin (1 mg/ml) was mixed with (i) sodium citrate buffer (0.1 M, pH 6.01) and (ii) citric acid solution (0.1 M, pH 1.60) in 1:1 v/v. The samples were stored at 4° C. and 23° C., and aliquots were sampled at designated timepoints (days 0, 7, 17, and 25).

Data set [5] is described as follows: Stability studies in acid solutions (PI salt solutions). The format is physicochemical. Particulars: 40° C. The text has this:
Ascorbic acid (AsA), acetic acid (AcA), tartaric acid (TA), fumaric acid (FA), citric acid (CA), malic acid (MA), benzenesulfonic acid (BSA), stearic acid (SA), sodium citrate dihydrate, monosodium phosphate hydrate, disodium phosphate were purchased from Sigma Aldrich. Aluminum (III) chloride (AlCl3) and iron (III) chloride (FeCl3) were purchased from Sigma Aldrich. Antioxidants, i.e., ethylenediaminetetraacetic acid (EDTA), ascorbic acid (AsA), L-cysteine (Cys), sodium metabisulfite (NamBiSO3) and propyl gallate (PG) were purchased from Sigma Aldrich. Hydroxypropyl-β-cyclodextrin (CAVASOL® W7 HP, CAVITRON® W7 HP7) and methyl-β-cyclodextrin (CAVASOL® W7 M) were provided by DuPont.
The following chromatographic conditions were used:
Diluent. The diluent used in the below studies was prepared as follows: 100 mL of acetonitrile (ACN) was mixed with 800 mL of water and 100 mL of 1.0 M citric acid and mixed well to prepare 1 L of diluent.
The stability of psilocin in 0.1 M solutions of various acids was tested.
Test solutions: To prepare the test solutions, 0.1 M solutions of AsA, AcA, TA, FA, CA, MA, BSA, and SA were prepared in DI water.

A short description of data set [6]: Stability studies in citric acid solution.
A short description of data set [7]: Stability studies in sodium citrate buffer. Type of data set: physicochemical. Here is the method: as §1
Data set [8] in a line: Stability studies with cyclodextrin complexes. The note with it: 40° C., with or without metal salts.
A short description of data set [9]: Observation of freeze dried salt. The note with it: freeze dried from 1,4-dioxane. Type of data set: physicochemical.
A short description of data set [10]: Anti-solvent precipitation: DMF or DMSO solution added to water. The format is physicochemical. Here is the method: The following techniques were tried but were not successful in the preparation of amorphous material: • i) Crash cooling freeze drying. […] Instead, solutions were formed which became dark within 4 hours, signifying degradation
A short description of data set [11]: Pharmacokinetics of psilocin-d10 and psilocybin in male beagle dog, powder in capsule (PIC) or orally disintegrating tablet (ODT).
A short description of data set [12]: Psilocin-d10 pharmacokinetics study in dogs following oral gavage and intravenous (bolus) administrations.
Data set [13] is described as follows: Stability of amorphous form from melt/crash cooling on standing. The note with it: amorphous free base. Type of data set: physicochemical.
The mark [14] stands for this setting: ODT, psilocin-d10 dosed 5 mg (nominal 0.5 mg/kg), analyte psilocin-d10, male beagle dog plasma, Mean.
Where [15] appears, read: PIC, psilocin-d10 dosed 5 mg (nominal 0.5 mg/kg), analyte psilocin-d10, male beagle dog plasma, Mean.
[16] abbreviates: female dog plasma, single intravenous (bolus) 0.20 mg/kg, Mean, N=3.
The mark [17] stands for this setting: female dog plasma, single intravenous (bolus) 0.20 mg/kg, Median, N=3.
The mark [18] stands for this setting: female dog plasma, single intravenous (bolus) 0.20 mg/kg, individual animals 60F, 61F, 723F, listed as Psilocin-d10, 0.2 mg/kg.
Setting [19] is: female dog plasma, single oral (gavage) 1.00 mg/kg, Median, N=3.
Setting [20] is: female dog plasma, single oral (gavage) 1.00 mg/kg, individual animals 60F, 61F, 723F, listed as Psilocin-d10, 1 mg/kg.

Where “and” joins values, the source holds several entries; their conditions need not be identical. Equal entries are not always repeated. Structures can show the parent of a compound that is named as a salt. Bounds are passed on as bounds.

As to `CN(C)CCc1c[nH]c2cccc(O)c12` [Compound I-7j, Benzoate Salt of 3-(2-(dimethylamino)ethyl)-1H-indol-4-ol], in [1], the “crystalline form by XRPD after maturation in 12 solvents” value (shortened to “crystalline form by XRPD”) is “retained their initial crystalline form”.

In the case of `CN(C)CCc1c[nH]c2cccc(O)c12` [Compound I-7, 3-(2-(dimethylamino)ethyl)-1H-indol-4-ol], in [2] (rats), the oral bioavailability came out at 7.52%. For the same compound, the “stability against metal salts with antioxidants” value in data set [3] is listed as “none of the antioxidants tested were able to provide stability”. The long-term solution stability entry is recorded as “only minimal degradation” in [4] (citric acid 0.1 M, pH 1.60, 23° C. and 4° C., 25 days); “degradation of psilocin began within a week” in data set [4] (sodium citrate buffer pH 6.01, room temperature). Also, in data set [4] (sodium citrate buffer pH 6.01, cold storage 4° C.), the “time psilocin remained stable” value is “up to 17 days”. For the same compound, the “solution stability (% psilocin remaining)” value is “excellent stability” in [5] (0.1 M acid solutions, with or without metal salts, up to 24); “nearly all psilocin being degraded” in data set [5] (without acid, within 24 hours); “significant psilocin degradation” in [5] (without acid, with Fe3+ and Al3+ metal ions); “greatly enhanced the stability” in data set [6] (small quantities of citric acid, pH 3.2, 4° C. and 23° C.); “nearly all psilocin being degraded” in data set [6] (without citric acid, 4, 23 and 40° C., by 18 hour time point); “significant psilocin degradation” in data set [6] (without citric acid, with Fe3+ and Al3+ metal ions). For the same compound, the “solution stability (% psilocin remaining)” value in data set [7] (0.1 M sodium citrate buffer, 4° C. and room temperature) is reported as “greatly stabilized”; in data set [7] (non-citrate buffered, with Fe3+ and Al3+ metal ions), “significant psilocin degradation”; in data set [7] (without sodium citrate buffer, 4, 23, 40° C., by 18 hour time point), “nearly all psilocin being degraded”. In addition, in data set [6] (small quantities of citric acid, 40° C., 24 hour), the “psilocin stabilization at 24 hour time point” value was 30%. Further, the degradation of psilocin in data set [7] (0.1 M sodium citrate buffer, 40° C.) is 10-15%. Besides, the “effect of metal salts (Fe3+ and Al3+) on psilocin” value in data set [7] (in 0.1 M citrate buffer) is on record as “no detrimental effects”. For the same compound, the stability with cyclodextrins entry in data set [8] was “did not impart stability”.

For the compound `CN(C)CCc1c[nH]c2cccc(O)c12` [Compound I-7e, Citrate Salt of 3-(2-(dimethylamino)ethyl)-1H-indol-4-ol], in data set [9], the “hygroscopicity of isolated solid” value is “hygroscopic”.

On to `CN(C)CCc1c[nH]c2cccc(O)c12` [Compound I-7a, Benzenesulfonate Salt of 3-(2-(dimethylamino)ethyl)-1H-indol-4-ol], for which the “crystalline form by XRPD” value in data set [1] was “retained their initial crystalline form”.

On to `[2H]C([2H])([2H])N(C([2H])([2H])[2H])C([2H])([2H])C([2H])([2H])c1c[nH]c2cccc(O)c12` [Compound I-3j, Benzoate Salt of 3-(2-(bis(methyl-d3)amino)ethyl-1,1,2,2-d4)-1H-indol-4-ol], for which the “crystalline form by XRPD” value in [1] is on record as “retained their initial crystalline form”.

With `CN(C)CCc1c[nH]c2cccc(O)c12` [Compound I-7b, Tartrate Salt of 3-(2-(dimethylamino)ethyl)-1H-indol-4-ol], in [1], the “crystalline form by XRPD” value is on record as “retained their initial crystalline form”.

What is called Cmax is the maximum level reached in the sampled fluid or tissue. The Tmax is the time at which the peak concentration occurs. Consider `[2H]C([2H])([2H])N(C([2H])([2H])[2H])C([2H])([2H])C([2H])([2H])c1c[nH]c2cccc(O)c12` [Compound I-3, 3-(2-(bis(methyl-d3)amino)ethyl-1,1,2,2-d4)-1H-indol-4-ol], for which the “time until solutions became dark, signifying degradation” value in [10] is no more than 4 h. The same compound displayed an oral bioavailability in [2] (rats) of 12.1%. In [11] (setting [14]), this compound had an AUCINF_obs of 0.213 µg·h/mL, an AUClast of 0.199 µg·h/mL, a Cl_F_obs of 2.42 L/h/kg and a Cmax of 0.0672 µg/mL. Besides, in [11] (setting [14]), the Tmax came to 0.542 h and the Vz_F_obs was found to be 6.9 L/kg. In addition, in [11] (setting [15]), the AUClast came out at 0.181 µg·h/mL, the Cl_F_obs worked out at 2.61 L/h/kg, the Cmax worked out at 0.06 µg/mL and the T½ is 2.01 h. This compound also gave a Vz_F_obs in data set [11] (setting [15]) of 7.6 L/kg. Further, the “psilocin-d10 exposure compared to psilocin exposure after administration of psilocybin” value in data set [11] (dogs, independent of formulation) is given as “twice as high”. Further, the “time of last detectable plasma level” value in data set [12] (dogs, oral administration) is 9 h. In data set [12] (setting [16]), the Cmax is 0.0458 µg/mL and the t1/2 is 1.37 h. Moreover, in data set [12] (setting [17]), the AUC0-inf amounted to 0.0958 µg·h/mL, the AUC0-t was 0.0807 µg·h/mL, the CL was determined as 2.09 L/h/kg and the peak concentration (Cmax) was found to be 0.0459 µg/mL. For the same compound, in data set [12] (setting [17]), the “DN Cmax” value was 230 (ng/mL)/(mg/kg) and the Vss worked out at 3.96 L/kg. In data set [12] (setting [18]), the AUC0-inf was found to be 0.0958 µg·h/mL; the AUC0-t worked out at 0.0807 µg·h/mL; the CL amounted to 2.09 L/h/kg; the Cmax was 0.0459 µg/mL and 0.0439 µg/mL. Besides, in data set [12] (setting [18]), the “DN AUC0-inf” value was 500 (h*ng/mL)/(mg/kg); the “DN Cmax” value is 230 (ng/mL)/(mg/kg) and 220 (ng/mL)/(mg/kg); the Vss came to 3.96 L/kg. Also, in data set [12] (setting [19]), the AUC0-inf came out at 0.414 µg·h/mL, the AUC0-t was 0.399 µg·h/mL and the t1/2 came out at 1.80 h. Moreover, in data set [12] (setting [20]), the AUC0-inf was 0.426 µg·h/mL and 0.414 µg·h/mL; the AUC0-t was 0.404 µg·h/mL and 0.399 µg·h/mL; the Cmax was 0.126 µg/mL; the t1/2 was 1.80 h and 1.82 h and 1.69 h. The “stability of amorphous form” value in [13] is given as “not stable for prolonged periods”.

`CN(C)CCc1c[nH]c2cccc(OP(=O)(O)O)c12` [psilocybin]: in data set [2] (rat plasma, Group 3: psilocybin intravenous (bolus) 2.8 mg/kg, label = analyte, IAD = immediately after dosing), the Tmax result was “IAD”. Besides, the “brain concentrations compared to plasma” value in data set [2] (rats, after IV dosing) is “brain concentrations are low”.

Take `CN(C)CCc1c[nH]c2cccc(O)c12` [Compound I-7c, Hemi-Fumarate Salt of 3-(2-(dimethylamino)ethyl)-1H-indol-4-ol]: the “crystalline form by XRPD” value in [1] is listed as “complex polymorphism”.

Values taken from patent publication US20260250246A1, “PSILOCYBIN ANALOGS, SALTS, COMPOSITIONS, AND METHODS OF USE” (priority 2021, published 2026).
